Measured values published in ChEMBL document CHEMBL1781986, “Structure-activity relationships of pyrrole based S-nitrosoglutathione reductase inhibitors: pyrrole regioisomers and propionic acid replacement” (Bioorg Med Chem Lett, 2011).
The source made the active and inactive calls. No cut-off for these calls is given here.

What was measured:
[1] = molecular target: Beta-2 adrenergic receptor (Homo sapiens) (UniProt P07550); test: Inhibition of human recombinant beta2 receptor at 10 uM by radioligand binding assay
[2] = molecular target: T1, Thromboxane A2 receptor (Homo sapiens) (UniProt P21731); test: Inhibition of human recombinant TP receptor at 10 uM by radioligand binding assay
T1 sequence (whole entry): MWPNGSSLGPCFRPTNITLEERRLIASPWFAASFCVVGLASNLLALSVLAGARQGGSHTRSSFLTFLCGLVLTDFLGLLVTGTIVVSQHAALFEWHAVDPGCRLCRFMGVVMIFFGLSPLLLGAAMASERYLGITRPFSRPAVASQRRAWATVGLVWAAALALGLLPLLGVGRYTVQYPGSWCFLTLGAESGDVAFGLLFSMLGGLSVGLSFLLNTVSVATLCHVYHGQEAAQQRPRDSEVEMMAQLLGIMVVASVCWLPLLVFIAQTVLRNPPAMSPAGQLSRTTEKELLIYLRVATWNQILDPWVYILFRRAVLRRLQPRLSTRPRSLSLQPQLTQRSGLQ

[3] = molecular target: T2, Adenosine receptor A3 (Homo sapiens) (UniProt P0DMS8); test: Inhibition of human recombinant A3 receptor at 10 uM by radioligand binding assay
T2 sequence (whole entry): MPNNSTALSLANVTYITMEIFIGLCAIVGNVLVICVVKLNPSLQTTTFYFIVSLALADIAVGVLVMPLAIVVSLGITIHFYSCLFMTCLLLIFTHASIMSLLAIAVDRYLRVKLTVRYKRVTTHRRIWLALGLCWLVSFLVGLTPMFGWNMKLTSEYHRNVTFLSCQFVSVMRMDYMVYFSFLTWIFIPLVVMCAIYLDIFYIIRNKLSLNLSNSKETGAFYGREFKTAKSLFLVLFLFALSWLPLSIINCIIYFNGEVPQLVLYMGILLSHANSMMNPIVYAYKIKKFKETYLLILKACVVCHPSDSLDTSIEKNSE

[4] = molecular target: Muscarinic acetylcholine receptor M3 (Homo sapiens) (UniProt P20309); test: Inhibition of human recombinant M3 receptor at 10 uM by radioligand binding assay
[5] = molecular target: Sodium-dependent serotonin transporter (Homo sapiens) (UniProt P31645); test: Inhibition of human recombinant 5HT transporter at 10 uM by radioligand binding assay
[6] = molecular target: 5-hydroxytryptamine receptor 6 (Homo sapiens) (UniProt P50406); test: Inhibition of human recombinant 5HT6 receptor at 10 uM by radioligand binding assay
[7] = tested on: A549; test: Cytotoxicity against human A549 cells; type: functional, cell-based

5-hydroxytryptamine receptor 6 (Homo sapiens), sequence (P50406 whole entry): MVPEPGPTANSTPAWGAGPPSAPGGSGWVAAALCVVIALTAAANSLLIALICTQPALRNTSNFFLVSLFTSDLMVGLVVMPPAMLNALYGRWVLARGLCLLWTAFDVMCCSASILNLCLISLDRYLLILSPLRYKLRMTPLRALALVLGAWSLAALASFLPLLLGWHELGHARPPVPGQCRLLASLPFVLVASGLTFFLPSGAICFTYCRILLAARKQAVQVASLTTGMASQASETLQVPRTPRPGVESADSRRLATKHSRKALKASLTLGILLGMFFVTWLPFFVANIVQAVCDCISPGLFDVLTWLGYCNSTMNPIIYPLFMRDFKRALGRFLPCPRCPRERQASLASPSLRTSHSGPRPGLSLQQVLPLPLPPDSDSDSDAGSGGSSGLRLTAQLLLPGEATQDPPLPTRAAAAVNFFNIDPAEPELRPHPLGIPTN
Beta-2 adrenergic receptor (Homo sapiens), sequence (P07550 whole entry, looked up): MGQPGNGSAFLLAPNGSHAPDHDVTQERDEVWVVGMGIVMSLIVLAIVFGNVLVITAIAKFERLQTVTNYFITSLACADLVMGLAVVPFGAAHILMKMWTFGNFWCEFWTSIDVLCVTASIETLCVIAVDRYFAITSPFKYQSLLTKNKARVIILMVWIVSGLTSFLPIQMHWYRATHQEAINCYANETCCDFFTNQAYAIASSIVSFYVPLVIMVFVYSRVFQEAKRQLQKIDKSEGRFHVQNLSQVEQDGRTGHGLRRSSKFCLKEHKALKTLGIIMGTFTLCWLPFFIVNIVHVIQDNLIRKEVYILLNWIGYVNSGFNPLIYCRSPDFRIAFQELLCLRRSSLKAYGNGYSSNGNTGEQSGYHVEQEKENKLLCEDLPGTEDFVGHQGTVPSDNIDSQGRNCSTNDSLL
Muscarinic acetylcholine receptor M3 (Homo sapiens), sequence (P20309 whole entry, looked up): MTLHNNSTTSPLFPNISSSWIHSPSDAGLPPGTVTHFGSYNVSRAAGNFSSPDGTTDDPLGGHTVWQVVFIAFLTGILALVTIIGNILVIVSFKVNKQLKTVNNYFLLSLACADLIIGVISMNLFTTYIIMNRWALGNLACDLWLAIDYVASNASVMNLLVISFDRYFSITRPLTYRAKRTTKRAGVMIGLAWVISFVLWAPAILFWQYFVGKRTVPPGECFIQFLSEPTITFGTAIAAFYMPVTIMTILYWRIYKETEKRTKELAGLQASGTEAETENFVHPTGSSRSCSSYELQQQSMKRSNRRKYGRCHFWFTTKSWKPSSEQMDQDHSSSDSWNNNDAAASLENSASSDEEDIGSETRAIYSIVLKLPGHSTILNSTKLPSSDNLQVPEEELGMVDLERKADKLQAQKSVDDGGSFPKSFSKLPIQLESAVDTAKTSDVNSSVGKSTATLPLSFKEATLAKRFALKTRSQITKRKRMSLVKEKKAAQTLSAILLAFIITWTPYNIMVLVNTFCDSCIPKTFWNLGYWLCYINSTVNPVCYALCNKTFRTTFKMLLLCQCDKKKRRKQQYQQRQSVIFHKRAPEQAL
Sodium-dependent serotonin transporter (Homo sapiens), sequence (P31645 whole entry, looked up): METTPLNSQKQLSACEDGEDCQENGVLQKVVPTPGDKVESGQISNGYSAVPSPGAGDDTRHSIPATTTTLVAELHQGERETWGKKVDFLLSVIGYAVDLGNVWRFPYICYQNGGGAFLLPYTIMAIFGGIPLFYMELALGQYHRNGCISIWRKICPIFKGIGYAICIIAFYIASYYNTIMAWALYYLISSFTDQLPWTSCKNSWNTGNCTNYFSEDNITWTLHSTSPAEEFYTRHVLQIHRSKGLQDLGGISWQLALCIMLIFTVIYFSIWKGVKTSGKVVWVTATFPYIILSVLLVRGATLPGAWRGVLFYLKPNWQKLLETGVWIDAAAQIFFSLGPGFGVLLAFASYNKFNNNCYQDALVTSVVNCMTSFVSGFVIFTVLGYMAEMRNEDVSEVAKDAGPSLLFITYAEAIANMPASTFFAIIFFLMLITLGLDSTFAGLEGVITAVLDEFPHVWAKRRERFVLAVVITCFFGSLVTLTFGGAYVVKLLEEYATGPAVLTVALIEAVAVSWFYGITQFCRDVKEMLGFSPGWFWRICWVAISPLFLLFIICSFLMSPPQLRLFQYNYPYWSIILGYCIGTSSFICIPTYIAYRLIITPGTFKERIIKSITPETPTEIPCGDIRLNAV

| Compound | inhibition [1] | inhibition [2] | inhibition [3] | inhibition [4] | inhibition [5] | inhibition [6] | IC50 [7] [µM] |
| --- | --- | --- | --- | --- | --- | --- | --- |
| Cc1cc(C(N)=O)ccc1-n1c(CCC(=O)O)ccc1-c1ccc(-n2ccnc2)cc1 [N6022] | inactive | inactive | inactive | inactive | inactive | inactive |  |
| COc1ccc(-c2ccn(-c3ccc(C(=O)O)c(O)c3)c2-c2ccc(C(N)=O)cc2C)cc1 | Active | Active | Active | Active | Active | Active |  |
| COc1ccc(-c2ccn(-c3ccc(O)c([N+](=O)[O-])c3)c2-c2ccc(C(N)=O)cc2C)cc1 | Active | Active | Active | Active | Active | Active |  |

Further lines, with some results ahead:

| inhibition [1] | inhibition [2] | inhibition [3] | inhibition [4] | inhibition [5] | inhibition [6] | Compound | IC50 [7] [µM] |
| --- | --- | --- | --- | --- | --- | --- | --- |
| inactive | inactive | inactive | inactive | inactive | inactive | Cc1cc(C(N)=O)ccc1-c1c(-c2ccc(-n3ccnc3)cc2)ccn1CCC(=O)O |  |
| inactive | inactive | inactive | inactive | inactive | inactive | Cc1cc(C(N)=O)ccc1-c1c(CCC(=O)O)ccn1-c1ccc(-n2ccnc2)cc1 | > 250 |
